According to PMC11188305, “Reproductive and fetal toxicity studies of histamine H3 receptor antagonist DL76 used in mice to prevent maximal electroshock-induced seizure” (Frontiers in Pharmacology, 2024):

Test system: C57/B6 mouse embryos
Experiment: Reproductive studies: maternal, fetal and gross/visceral malformation observations after treatment on GD-8 or GD-13
Type: in vivo
Conditions: for Number of female embryos / Number of male embryos: number (percentage); for Exomphalos / Eye open / Kinky tail / Left/right kidney hypo/descended / Mandible hypoplasia / Maxilla hypoplasia / Microtia/low set microtia / Undescended testis: number of embryos (percentage); for Live fetus/litter / Resorption/litter: parentheses contain percentages; for Placental weight, IUGR −2SD: fraction (percentage); for Fetal weight, IUGR −1SD / Fetal weight, IUGR −2SD: fraction of fetuses (percentage)
Protocol: Reproductive studies were conducted in adult female mice, averaging 30 gm in weight and 6 weeks in age ([Padmanabhan et al., 2006]; [Bastaki et al., 2018]). Following successful mating, indicated by vaginal plug observation, the plug-positive day was considered gestation day 0 (GD-0). DL76 was administered at various doses (7.5 mg/kg, 15 mg/kg, 30 mg/kg, and 60 mg/kg) through single i.p. injections and three 15 mg/kg injections in 1 day to mouse groups on GD-8 and GD-13 (Tables 1, 2). The control group was injected with normal saline. Appropriate formation of different organs occurs in specific periods of the development of the mouse. These two periods were selected because GD-8 is known to be a critical period for the induction of neural tube defects, craniofacial malformations, and the development of other organs, whereas on GD-13, the retina and other parts are being formed, and most other organs have been formed. The number of implantations, fetal deaths, and resorptions was recorded. Fetal and placental weights were documented separately. After blotting dry, the fetuses were weighed and fixed in 95% ethanol. The reproductive toxicological effects of DL76 were assessed by observing gross and visceral malformations, following [Sterz and Lehmann (1985)], [Abdulrazzaq et al. (1997)], [Padmanabhan et al. (2003)], and [Padmanabhan et al. (2006)].
Deformities of the embryos were identified according to a modified method of [Sterz and Lehmann (1985)], [Abdulrazzaq et al. (1997)], and [Bass et al. (2020)]. Accordingly, the embryos were removed from the 95% ethanol, and the lower part of the abdomen was cut using a razor blade. All organs were checked for abnormalities with a stereo dissecting microscope, and finally, the organs were removed by using forceps.
Statistical analyses employed SPSS 26.0 (IBM Middle East, Dubai, UAE). Data were presented as means ± SEM. […] Fetal abnormality data were presented as counts and percentages. Fisher’s exact test compared the percentages of abnormalities between the control group (saline) and the different dose groups. All tests were two-tailed, and significance was set at p < 0.05.

CC(C)(C)c1ccc(OCCCN2CCCCC2)cc1 [DL76, 1-(3-(4-tert-butyl-phenoxy)propyl) piperidine] was tested, and the “Number of female embryos” value (30 mg/kg i.p. on GD-13) was 24 (55.8), the “Number of male embryos” value (30 mg/kg i.p. on GD-13) was 19 (44.2) and the Exomphalos (30 mg/kg i.p. on GD-13) was 1 (2.3). For the same compound, the Eye open (30 mg/kg i.p. on GD-13) was 0, the Kinky tail (30 mg/kg i.p. on GD-13) was 0 and the Left/right kidney hypo/descended (30 mg/kg i.p. on GD-13) was 1 (2.3). The Mandible hypoplasia (30 mg/kg i.p. on GD-13) was 3 (7.0), the Maxilla hypoplasia (30 mg/kg i.p. on GD-13) was 2 (4.7) and the Microtia/low set microtia (30 mg/kg i.p. on GD-13) was 1 (2.3). The Undescended testis (30 mg/kg i.p. on GD-13) was 0, the Live fetus/litter (30 mg/kg i.p. on GD-13) was 6.143 (87.76) and the Resorption/litter (30 mg/kg i.p. on GD-13) was “.857 (12.24)”. For the same compound, the “Fetal weight/Litter (g) (Mean ± SD)” value (60 mg/kg i.p. on GD-8) was 1.048 ± .0156 g, the Fetuses/litter (60 mg/kg i.p. on GD-8) was 7.286 ± 1.380 and the “Placental weight/Litter (g) (mean ± SD)” value (60 mg/kg i.p. on GD-8) was 0.101 ± 0.010 g. For the same compound, the “Placental weight, IUGR −2SD” value (60 mg/kg i.p. on GD-8) was 0, the “Fetal weight, IUGR −1SD” value (60 mg/kg i.p. on GD-8) was 0 and the “Number of female embryos” value (60 mg/kg i.p. on GD-8) was 21 (45.7). The “Number of male embryos” value (60 mg/kg i.p. on GD-8) was 25 (54.3), the Exomphalos (60 mg/kg i.p. on GD-8) was 0 and the Eye open (60 mg/kg i.p. on GD-8) was 1 (2.2). The Kinky tail (60 mg/kg i.p. on GD-8) was 0, the Left/right kidney hypo/descended (60 mg/kg i.p. on GD-8) was 2 (4.3) and the Mandible hypoplasia (60 mg/kg i.p. on GD-8) was 4 (8.7). For the same compound, the Maxilla hypoplasia (60 mg/kg i.p. on GD-8) was 2 (4.3), the Microtia/low set microtia (60 mg/kg i.p. on GD-8) was 2 (4.3) and the Undescended testis (60 mg/kg i.p. on GD-8) was 0. For the same compound, the Live fetus/litter (60 mg/kg i.p. on GD-8) was 6.571 (90.20), the Resorption/litter (60 mg/kg i.p. on GD-8) was 0.714 (9.80) and the “Fetal weight Litter (g) (Mean ± SD)” value (60 mg/kg i.p. on GD-13) was 1.051 ± 0.122 g. The Fetuses/litter (60 mg/kg i.p. on GD-13) was 7.000 ± 1.414, the “Placental weight/Litter (g) (mean ± SD)” value (60 mg/kg i.p. on GD-13) was 0.097 ± 0.010 g and the “Fetal weight, IUGR −1SD” value (60 mg/kg i.p. on GD-13) was 0. For the same compound, the “Fetal weight, IUGR −2SD” value (60 mg/kg i.p. on GD-13) was 0, the “Number of female embryos” value (60 mg/kg i.p. on GD-13) was 17 (53.1) and the “Number of male embryos” value (60 mg/kg i.p. on GD-13) was 15 (46.9). For the same compound, the Exomphalos (60 mg/kg i.p. on GD-13) was 0, the Eye open (60 mg/kg i.p. on GD-13) was 2 (6.3) and the Kinky tail (60 mg/kg i.p. on GD-13) was 0. For the same compound, the Left/right kidney hypo/descended (60 mg/kg i.p. on GD-13) was 2 (6.3), the Mandible hypoplasia (60 mg/kg i.p. on GD-13) was 2 (6.3) and the Maxilla hypoplasia (60 mg/kg i.p. on GD-13) was 2 (6.3). For the same compound, the Microtia/low set microtia (60 mg/kg i.p. on GD-13) was 2 (6.3), the Undescended testis (60 mg/kg i.p. on GD-13) was 2 (6.3) and the Live fetus/litter (60 mg/kg i.p. on GD-13) was 5.333 (76.19). The Resorption/litter (60 mg/kg i.p. on GD-13) was 1.667 (23.81), the “Fetal weight/Litter (g) (Mean ± SD)” value (3 × 15-dose i.p. on GD-8) was 1.037 ± 0.101 g and the Fetuses/litter (3 × 15-dose i.p. on GD-8) was 8.143 ± 0.690. For the same compound, the “Placental weight/Litter (g) (mean ± SD)” value (3 × 15-dose i.p. on GD-8) was 0.092 ± 0.007 g, the “Placental weight, IUGR −2SD” value (3 × 15-dose i.p. on GD-8) was 0 and the “Fetal weight, IUGR −2SD” value (3 × 15-dose i.p. on GD-8) was 0. The “Number of female embryos” value (3 × 15-dose i.p. on GD-8) was 24 (51.1), the “Number of male embryos” value (3 × 15-dose i.p. on GD-8) was 23 (48.9) and the Exomphalos (3 × 15-dose i.p. on GD-8) was 0. For the same compound, the Eye open (3 × 15-dose i.p. on GD-8) was 4 (8.5), the Kinky tail (3 × 15-dose i.p. on GD-8) was 0 and the Left/right kidney hypo/descended (3 × 15-dose i.p. on GD-8) was 2 (4.3). The Mandible hypoplasia (3 × 15-dose i.p. on GD-8) was 3 (6.4), the Maxilla hypoplasia (3 × 15-dose i.p. on GD-8) was 2 (4.3) and the Microtia/low set microtia (3 × 15-dose i.p. on GD-8) was 2 (4.3). The Undescended testis (3 × 15-dose i.p. on GD-8) was 1 (2.1), the Live fetus/litter (3 × 15-dose i.p. on GD-8) was 6.714 (82.46) and the Resorption/litter (3 × 15-dose i.p. on GD-8) was 1.429 (17.54). The “Fetal weight Litter (g) (Mean ± SD)” value (3 × 15-dose i.p. on GD-13) was 1.051 ± 0.031 g, the Fetuses/litter (3 × 15-dose i.p. on GD-13) was 8.286 ± 1.704 and the “Placental weight/Litter (g) (mean ± SD)” value (3 × 15-dose i.p. on GD-13) was 0.110 ± 0.012 g. For the same compound, the “Placental weight, IUGR −2SD” value (3 × 15-dose i.p. on GD-13) was 0, the “Fetal weight, IUGR −1SD” value (3 × 15-dose i.p. on GD-13) was 0 and the “Fetal weight, IUGR −2SD” value (3 × 15-dose i.p. on GD-13) was 0. The “Number of female embryos” value (3 × 15-dose i.p. on GD-13) was 24 (50.0), the “Number of male embryos” value (3 × 15-dose i.p. on GD-13) was 24 (50.0) and the Exomphalos (3 × 15-dose i.p. on GD-13) was 1 (2.1). For the same compound, the Eye open (3 × 15-dose i.p. on GD-13) was 6 (12.5), the Kinky tail (3 × 15-dose i.p. on GD-13) was 1 (2.1) and the Left/right kidney hypo/descended (3 × 15-dose i.p. on GD-13) was 2 (4.2). The Mandible hypoplasia (3 × 15-dose i.p. on GD-13) was 3 (6.3), the Maxilla hypoplasia (3 × 15-dose i.p. on GD-13) was 3 (6.3) and the Microtia/low set microtia (3 × 15-dose i.p. on GD-13) was 3 (6.3). For the same compound, the Undescended testis (3 × 15-dose i.p. on GD-13) was 0, the Live fetus/litter (3 × 15-dose i.p. on GD-13) was 6.857 (82.76) and the Resorption/litter (3 × 15-dose i.p. on GD-13) was 1.429 (17.24). The “mean fetal weight in each litter, treatment groups vs controls” value (GD-8 and GD-13, all doses) was “not significantly different”, the “mean placental weights, treated groups vs controls” value (GD-8 and GD-13, all doses) was “not significantly different” and the “number of fetuses in each litter, between all study groups” value (GD-8 and GD-13, all doses) was “not significantly different”. The “number of live fetuses, between all study groups” value (GD-8 and GD-13, all doses) was “not significantly different”, the “resorption rate, between all the groups” value (GD-8 and GD-13, all doses) was “not significantly different” and the maternal toxicity (all groups, GD-8 and GD-13 treated animals) was “no sign of maternal toxicity”. The “incidence of exencephaly and craniofacial malformations, exomphalos, microtia, open eye, palate, hydronephrosis, descended kidney, undescended testis, kinky tail” value (between any of the groups studied) was “no significant difference”, the “average number of implantations and resorptions, control vs DL76-treated groups” value (early stages of gestation and organogenesis period) was “No significant alterations” and the “maternal body weight vs control mice group” value (single 7.5, 15, 30 or 60 mg/kg i.p. or multiple doses 3 × 15 mg/kg i.p. on GD 8 or 13) was “failed to affect”. The “incidence of gross morphological anomalies in treated fetuses vs control group” value (single- and multiple-dose groups given i.p.) was “not significantly different”.
